Data published in US20220000964A1, “Compositions and Methods for Regulating Homeostasis of Chondrocytes, Extracellular Matrix, Articular Cartilage, and Phenotype of Arthritis” (Unigen, Inc., priority 2020, published 2022).
Values joined by “and” are separate entries in the source; they are usually repeats but may differ in a detail not shown here. Equal values may be shown once. Marks after values point to notes of the source that are not given here.

What was measured:
Format in all cases: in vivo, rat
[1] = tested on: CIA rats; test: CIA rats, ankle diameter; parameters: Ankle diameter (Mean): unit not given here; details: for % Inhibition Ankle diameter (AUC): vs CIA + vehicle
[2] = tested on: type II collagen synthesis and degradation; test: CIA rats, Z score of type II collagen synthesis and degradation (PIIANP, uCTX-II)
From the text: Previously, Garnero et al measured these markers [Type II collagen synthesis and degradation: N-propeptide of type IIA procollagen (PIIANP) and urine CTX-II, respectively] and correlated them to findings on radiographs and arthroscopy of OA patients. […] They explained their observation that these patients have an uncoupling effect between collagen synthesis and degradation, which is leaning more towards the progression of OA.
Adapting their method, we calculated the Z-factor for cartilage synthesis and degradation using data from PIIANP and uCTX-II, respectively. For an intervention to drive the OA catabolic progression towards anabolic or regenerative activities, the Z-score values have to come close to zero.

[3] = tested on: CIA rats; test: CIA rats, compression-induced pain (Randall-Salitto)
Procedure: Clinical findings such as arthritis severity index, paw thickness, ankle diameter (using Digital Absolute, Model #PK-0505CPX, Mitutoyo Corporation, Kawasaki, Japan), and pain sensitivity (using Randall Salitto, IITC Life Science Inc., Woodland Hills, Calif., USA) were monitored during the course of study. Urine was collected from overnight fasted rats using metabolic cages after three weeks of treatment post-model induction. At Necropsy, serum from the cardiac and synovial lavage (100 μL of saline was injected into the articular cavity and aspirated back to the syringe) for biomarkers and ankle joint for histopathology were collected from each animal.
(§1) Response to pressure as a measure of pain sensitivity was assessed using the Randall-Salitto probe attached to an electronic monitor on priming day, boost day, and days 12, 14, 16, 19, and 21. Both the left and right hind legs were monitored on those days and their average was used for data analysis. Changes from the vehicle-treated CIA rats have been reported as pain tolerance on those days.
as §1, with “measured” for “assessed”, “18” for “19,”, “20.” for “21.”, “averages were” for “average was”, “days. […] This reduction in pain sensitivity was statistically significant at all time points as of day-12 for both groups when compared to vehicle-treated CIA rats (Table 43).” for “days.”

## CN(Cc1cnc2nc(N)nc(N)c2n1)c1ccc(C(=O)N[C@@H](CCC(=O)O)C(=O)O)cc1 [Methotrexate]
[1]; AMK CIA study, MTX 75 μg/kg, AMK 200 mg/kg oral, AUC days 9-21
  percent reduction in ankle diameter (AUC) vs vehicle-treated CIA: 65.94% and 65.9%
[1]; AMK study, MTX 75 μg/kg, AMK 200 mg/kg
  AUC(d9-d21) (Mean ± SD) Ankle diameter: 39.11 ± 0.21
[1]; AP CIA study, Methotrexate 0.5 mg/kg, AP 200 mg/kg oral
  percent reduction in ankle diameter (AUC) vs vehicle-treated CIA: 93.6%
[1]; AP study, MTX 0.5 mg/kg, AP 200 mg/kg
  AUC(d9-d21) (Mean ± SD) Ankle diameter: 30.94 ± 0.11
[1]; Boost, MTX 75 μg/kg, AMK 200 mg/kg
  Ankle diameter (Mean): 6.08
[1]; Day 9, MTX 75 μg/kg, AMK 200 mg/kg
  Ankle diameter (Mean): 6.12
[1]; Day 10, MTX 75 μg/kg, AMK 200 mg/kg
  Ankle diameter (Mean): 6.17
[1]; Day 11, MTX 75 μg/kg, AMK 200 mg/kg
  Ankle diameter (Mean): 6.33
[1]; Day 12, MTX 75 μg/kg, AMK 200 mg/kg
  Ankle diameter (Mean): 6.50*
[1]; Day 13, MTX 75 μg/kg, AMK 200 mg/kg
  Ankle diameter (Mean): 6.67*
[1]; Day 14, MTX 75 μg/kg, AMK 200 mg/kg
  Ankle diameter (Mean): 6.85*
[1]; Day 15, MTX 75 μg/kg, AMK 200 mg/kg
  Ankle diameter (Mean): 7.06*
[1]; Day 16, MTX 75 μg/kg, AMK 200 mg/kg
  Ankle diameter (Mean): 7.28*
[1]; Priming, AP study, MTX 0.5 mg/kg, AP 200 mg/kg
  Ankle diameter (Mean): 0.10
[1]; Priming, MTX 75 μg/kg, AMK 200 mg/kg
  Ankle diameter (Mean): 6.03
[1]; day 17, MTX 75 μg/kg, AMK 200 mg/kg
  Ankle diameter (Mean): 7.32*
[1]; day 19, MTX 75 μg/kg, AMK 200 mg/kg
  Ankle diameter (Mean): 6.03†
[1]; day 21, MTX 75 μg/kg, AMK 200 mg/kg
  Ankle diameter (Mean): 6.08†
[1]; MTX 75 μg/kg, AMK 200 mg/kg
  % Inhibition Ankle diameter (AUC): 65.94%
[1]; MTX 0.5 mg/kg, AP 200 mg/kg
  % Inhibition Ankle diameter (AUC): 93.59%
[2]; (CTX-II)-(PIIANP), Methotrexate 0.5 mg/kg (printed), AMK 200 mg/kg
  Z score, Imbalance (catabolic − anabolic), Mean ± SE: 1.30 ± 0.33
[2]; from PIIANP, SDs from mean of normal control rats, Methotrexate 0.5 mg/kg (printed), AMK 200 mg/kg
  Z score, Regeneration, Mean ± SE: −0.90 ± 0.16
[2]; from imbalance Z score
  improvement in driving OA progression to normalcy relative to vehicle treated CIA rats: 56.4%
[2]; from uCTX-II, SDs from mean of normal control rats, Methotrexate 0.5 mg/kg (printed), AMK 200 mg/kg
  Z score, Degradation, Mean ± SE: 0.39 ± 0.34
[3]; AP CIA study, Methotrexate 0.5 mg/kg, day 20
  pain tolerance improvement vs vehicle-treated CIA: 69.4%
[3]; AP CIA study, days 12-20
  range of reduction in pain sensitivity vs vehicle treated CIA rats: 8.39-69.4%
[3]; Boost, MTX 0.5 mg/kg, AP 200 mg/kg
  Compression pain resistance vs CIA + vehicle (Mean ± SD): −1.50%
[3]; Day 12, MTX 0.5 mg/kg, AP 200 mg/kg
  Compression pain resistance vs CIA + vehicle (Mean ± SD): 8.39%
[3]; Day 14, MTX 0.5 mg/kg, AP 200 mg/kg
  Compression pain resistance vs CIA + vehicle (Mean ± SD): 27.30%
[3]; Day 16, MTX 0.5 mg/kg, AP 200 mg/kg
  Compression pain resistance vs CIA + vehicle (Mean ± SD): 54.31%
[3]; Day 18, MTX 0.5 mg/kg, AP 200 mg/kg
  Compression pain resistance vs CIA + vehicle (Mean ± SD): 64.13%
[3]; Day 20, MTX 0.5 mg/kg, AP 200 mg/kg
  Compression pain resistance vs CIA + vehicle (Mean ± SD): 69.35%
[3]; MTX 75 μg/kg, AMK 200 mg/kg oral, Boost
  Compression pain resistance vs CIA + vehicle (Mean ± SD): 0.27 ± 2.16%
[3]; MTX 75 μg/kg, AMK 200 mg/kg oral, Day 12
  Compression pain resistance vs CIA + vehicle (Mean ± SD): 6.8%
[3]; MTX 75 μg/kg, AMK 200 mg/kg oral, Day 12, listed as MTX
  Compression pain resistance vs CIA + vehicle (Mean ± SD): 6.75 ± 4.56 %
[3]; MTX 75 μg/kg, AMK 200 mg/kg oral, Day 14
  Compression pain resistance vs CIA + vehicle (Mean ± SD): 13.5%
[3]; MTX 75 μg/kg, AMK 200 mg/kg oral, Day 14, listed as MTX
  Compression pain resistance vs CIA + vehicle (Mean ± SD): 13.48 ± 15.98%
[3]; MTX 75 μg/kg, AMK 200 mg/kg oral, Day 16
  Compression pain resistance vs CIA + vehicle (Mean ± SD): 28.2%
[3]; MTX 75 μg/kg, AMK 200 mg/kg oral, Day 16, listed as MTX
  Compression pain resistance vs CIA + vehicle (Mean ± SD): 28.18 ± 12.53 %
[3]; MTX 75 μg/kg, AMK 200 mg/kg oral, Day 19
  Compression pain resistance vs CIA + vehicle (Mean ± SD): 40.8%
[3]; MTX 75 μg/kg, AMK 200 mg/kg oral, Day 19, listed as MTX
  Compression pain resistance vs CIA + vehicle (Mean ± SD): 40.77%
[3]; MTX 75 μg/kg, AMK 200 mg/kg oral, Day 21
  Compression pain resistance vs CIA + vehicle (Mean ± SD): 43.9%
[3]; MTX 75 μg/kg, AMK 200 mg/kg oral, Day 21, listed as MTX
  Compression pain resistance vs CIA + vehicle (Mean ± SD): 43.88 ± 5.97^¥ %
[3]; MTX 75 μg/kg, AMK 200 mg/kg oral, Prime
  Compression pain resistance vs CIA + vehicle (Mean ± SD): −0.12 ± 1.39%
[3]; Prime, MTX 0.5 mg/kg, AP 200 mg/kg
  Compression pain resistance vs CIA + vehicle (Mean ± SD): −1.20%
